{"source": "patent US7674771B2", "about": "“Antimicrobial peptides and utilization of the same” (Toagosei Co., Ltd, priority 2003, dated 2010)", "key": {"S. aureus": {"tested_on": "S. aureus", "type": "cell-based, Staphylococcus aureus", "protocol": "(§1) First, a drug (synthesized polypeptide) solution having a concentration of 40 times of the highest test concentration was prepared using sterile distilled water, and liquid-bouillon mediums (more specifically, “Mueller Hinton Broth” manufactured by DIFCO) including cation and having drug concentrations of 100, 50, 25, 12.5, 6.3, 3.1, 1.6 and 0.8 μM were respectively produced. The cation included was prepared as follows: dissolving 3.68 g of CaCl2.2H2O in 100 mL of purified water (10 mg.Ca^2+/mL), and thereafter adding 500 μL thereof into 100 mL of Mueller Hinton Broth; and dissolving 8.36 g of MgCl2.6H2O in 100 mL of purified water (10 mg.Mg^2+/mL), and thereafter adding 250 μL thereof into 100 mL of Mueller Hinton Broth. Thereafter, the produced liquid-bouillon mediums including the drug of each concentration were then fed to the 96-well microplate at […] a time.\n(§2) At the same time, test bacteria cultured for 18 hours at 37° C. on an agar plate (“Muller Hinton Agar” manufactured by DIFCO) were gathered by scratching with a loop, and then suspended in a sterilized physiological saline. Bacterial suspension 5 μL prepared at an equivalent of 2×10^7 cells/mL was respectively inoculated (number of bacteria to be tested: approximately 1×10^6 cells/mL) onto the drug solution and fed to each well of the above-described microplate. After inoculation, the microplate was then incubated in an incubator at 37° C., and the presence of bacteria was evaluated based on the turbidity 24 hours later. The minimum drug concentration (polypeptide concentration), in which an increased in turbidity caused by bacteria was not detected at the time of measurement, was defined as MIC (minimum inhibitory concentration) (unit: μM) in the present embodiment. In addition, MIC were determined in the same manner using polymyxin B as a comparison.\nNext, the antimicrobial activities (MIC) against gram-positive bacteria (S. aureus) in the presence of serum were tested with the same method as Example 2. […] Thereafter, the produced liquid-bouillon mediums including the drug and the serum of each concentration were then fed to the 96-well microplate at […] a time, and MIC were determined by the method same as Example 2. Sample X in the table is a mixture of sample 1 and sample 16 based on a mass ratio of 1:1. “-” in the table indicate “untested”."}, "[1]": {"tested_on": "Aspergillus niger IFO 6341", "type": "cell-based", "protocol": "(§3) Antimicrobial activity against fungi (Aspergillus niger IFO 6341) of the antimicrobial peptides related to the present invention was tested according to a general antimycotic susceptibility test as follows.\nMore specifically, a slant or plate medium (“potato dextrose agar” medium manufactured by DIFCO was used typically) adhered with spores (conidia) was prepared in advance, and A. niger (IFO 6341; JIS test strain) were gathered from the medium by scratching the medium surface 4 to 5 times from bottom up with a 1 μL disposable loop and suspended in 25 mL of PBS (free of Mg, Ca) solution containing 0.05% of surfactant (Tween® 80). Thereafter, pipetting was performed using a measuring pipette or the like such that clusters of black spores disappeared completely. The spore concentration of the spore suspension prepared by such method was determined using a hemocytometer while the above-described surfactant containing PBS solution was being diluted accordingly, thereby deriving a spore suspension having a spore concentration of approximately 2.5×10^5 spores/mL. […]\nNext, a test fungus suspension was prepared by adding, with respect to 10 part by mass of the above-described spore suspension, 2 parts by mass of Alamar Blue fluorescence reagent (product of Wako Pure Chemical Industries, Ltd.) and 8 parts by mass of RPMI1640 medium containing 0.165M of MOPS, which was prepared by dissolving 5.2 g of RPMI1640 (product of Irvine Scientific) and 1.0 g of NaHCO3 in 450 mL of sterile distilled water and thereafter adding 17.12 g of MOPS and stirring, and adjusting the pH value to 7.0 by adding NaOH, and then filling up to 500 mL by adding sterile distilled water. […]\nSixteen hours after the beginning of culturing, the plate was retrieve from the incubator, and the presence of generation (growth) of mycelia in each well (well that had already been fed exclusively by the above-described test drug) used for spore growth inhibition test was evaluated with a microscope. […]"}, "[2]": {"tested_on": "Staphylococcus aureus IFO 12732", "type": "cell-based", "details": "IFO 12732, 24 h", "protocol": "(§4) Regarding the antimicrobial peptide (samples 1 to 20) related to the present invention, the antimicrobial activities (minimum inhibitory concentration: MIC) with respect to gram-negative bacteria (Escherichia coli IFO 3972) and gram-positive bacteria (Staphylococcus aureus IFO 12732) were determined by a liquid medium dilution technique using a 96-well microplate.\nas §1, §2"}, "[3]": {"tested_on": "Aspergillus niger IFO 6341", "type": "cell-based", "protocol": "as §3\nMore specifically, a slant or plate medium (“potato dextrose agar” medium manufactured by DIFCO was used typically) adhered with spores (conidia) was prepared in advance, and A. niger (IFO 6341; JIS test strain) were gathered from the medium by scratching the medium surface 4 to 5 times from bottom up with a 1 μL disposable loop and suspended in 25 mL of PBS (free of Mg, Ca) solution containing 0.05% of surfactant (Tween® 80). Thereafter, pipetting was performed using a measuring pipette or the like such that clusters of black spores disappeared completely. The spore concentration of the spore suspension prepared by such method was determined using a hemocytometer while the above-described surfactant containing PBS solution was being diluted accordingly, thereby deriving a spore suspension having a spore concentration of approximately 2.5×10^5 spores/mL.\nAt the same time, the above-described two polypeptides (samples 1, 3) and benzalkonium chloride serving as a comparison for antimycotic activity were dissolved in 10 mM of HEPES buffer (pH7.0) respectively to prepare stock solutions with a 2.0 mg/mL drug concentration. These were sequentially diluted to prepare various kinds of test drugs with drug (each polypeptide or benzalkonium chloride) concentrations of 400, 200, 100, 50, 25, 5 and 0.5 μg/mL.\nA spore germination inhibition test and a spore growth inhibition test were performed using the above-prepared drugs and spore suspension as follows.\nFirst, each of the above-described drugs was fed to the 96-well microplate at 40 μL a time for the spore germination inhibition test. The surplus drugs were stored in a refrigerator (4° C.) to be used for the spore growth inhibition test to be perform at a later date.\nNext, a test fungus suspension was prepared by adding, with respect to 10 part by mass of the above-described spore suspension, 2 parts by mass of Alamar Blue fluorescence reagent (product of Wako Pure Chemical Industries, Ltd.) and 8 parts by mass of RPMI1640 medium containing 0.165M of MOPS, which was prepared by dissolving 5.2 g of RPMI1640 (product of Irvine Scientific) and 1.0 g of NaHCO3 in 450 mL of sterile distilled water and thereafter adding 17.12 g of MOPS and stirring, and adjusting the pH value to 7.0 by adding NaOH, and then filling up to 500 mL by adding sterile distilled water. Then, the fungus suspension was fed at 160 μL a time to the wells in which the above-described drugs were added. In addition, empty wells in which no drug was added were also fed at 160 μL a time for spore growth inhibition test. After feeding, it was cultured under a humid environment for 16 hours in an incubator at 30° C.\nTwenty-four hours and 48 hours after the beginning of culturing, the colour of the mediums in the wells used for spore germination inhibition test and the wells for spore growth inhibition test were observed. Here, those in which the Alamar Blue included within the medium remain blue (oxidized form) were evaluated as positive of antimicrobial activity positive, and those that are pink (reduced form) were evaluated as negative of antimicrobial activity. Moreover, the smallest drug concentration recognized as oxidized form (blue color) was served as MIC (minimum growth inhibitory concentration) in the spore germination inhibition test and the spore growth inhibition test related to the present example.", "remark": "listed apart in the source"}, "[4]": {"tested_on": "Escherichia coli IFO 3972", "assay": "MIC by liquid medium dilution technique, 96-well microplate, gram-negative bacteria", "type": "cell-based", "details": "for Antimicrobial Activities (MIC) E. coli: IFO 3972, 24 h", "protocol": "as §4, §1, §2"}, "[5]": {"tested_on": "methicillin-resistant Staphylococcus aureus (MRSA, No. 164 strain)", "assay": "Treatment effect test on mice infected by MRSA, bacterial count in intestine content", "type": "in vivo", "details": "oral 100 mg/kg", "protocol": "The following test was performed to evaluate the treatment effect on mice infected by bacterial (MRSA) of sample 22 obtained by synthesis.\nMice (ICR, SLC, male, 5 weeks old) were prepared by rearing on drinking water mixed with amphotericin B (AMPH: product of Bristol-Myers Company) and tetracycline, such that their concentrations are 10 μg/mL (AMPH) and 2000 μg/mL (tetracycline) respectively, a week before the start of the test, and the immunity of the mice was weaken by administrating 200 mg/kg amount of cyclophosphamide into the abdominal for 3 days from the fourth day prior to the test.\nBacterial suspension prepared by suspending methicillin-resistant Staphylococcus aureus (MRSA, No. 164 strain) in 10% (w/v) of mucin solution was orally administered to the mice at a bacterial administration quantity of 10^8 cells/mouse, thereby eliciting MRSA infection.\nOne hour after the bacterial inoculation, antimicrobial agent prepared by suspending the test material (therefore polypeptide of sample 22) in 10% of gum arabic solution was orally administered. The administered quantity of suspension was 100 mg/kg. A total of 5 test groups, with each test group containing 5 test mice, were tested. For comparison, antimicrobial agent prepared by suspending vancomycin in 10% of gum arabic solution was orally administered to the test mice under the same conditions.\nAfter the drug administration, test mice were slaughtered approximately 24 hours later, and the contents in the intestine extracted, and the bacterial count of MRSA examined. More specifically, 1.8 mL of physiological saline was added to and mixed with approximately 0.2 g of intestine contents. A fixed quantity of such mixture was smeared on mannitol agar medium (product of Nissui Pharmaceutical Co., Ltd) including gentamicin (GM) with a concentration of […], and cultured for 3 days at 37° C."}}, "note": "Read-outs that look alike come from different tables or passages of the source. Ends that are not written are not given here."}
{"substance": "H-RIRKKLRLMWWML-NH2 [sample 3, RIRKKLRLMWWML-CONH2]", "values": [{"measurement": "Antimicrobial Activities (MIC) against S. aureus, horse serum concentration 10%", "setting": "S. aureus", "result": 3.1, "unit": "µM"}, {"measurement": "MIC against A. niger, spore growth inhibition test after 24 hours", "setting": "[1]; IFO 6341, 24 h", "result": 100, "unit": "µg/mL"}, {"measurement": "Antimicrobial Activities (MIC) S. aureus", "setting": "[2]", "result": 3.1, "unit": "µM"}, {"measurement": "MIC against A. niger, spore germination inhibition test after 24 hours", "setting": "[3]; IFO 6341, 24 h", "result": 100, "unit": "µg/mL"}, {"measurement": "MIC against A. niger, spore germination inhibition test after 48 hours", "setting": "[3]; IFO 6341, 48 h", "result": 100, "unit": "µg/mL"}, {"measurement": "Antimicrobial Activities (MIC) E. coli", "setting": "[4]", "result": 6.3, "unit": "µM"}]}
{"substance": "H-RKKKRKVLMWWMLR-NH2 [sample 1, RKKKRKVLMWWMLR-CONH2]", "values": [{"measurement": "Antimicrobial Activities (MIC) against S. aureus, horse serum concentration 10%", "setting": "S. aureus", "result": 3.1, "unit": "µM"}, {"measurement": "Antimicrobial Activities (MIC) against S. aureus, horse serum concentration 20%", "setting": "S. aureus", "result": 3.1, "unit": "µM"}, {"measurement": "Antimicrobial Activities (MIC) against S. aureus, horse serum concentration 50%", "setting": "S. aureus", "result": 3.1, "unit": "µM"}, {"measurement": "MIC against A. niger, spore growth inhibition test after 24 hours", "setting": "[1]; IFO 6341, 24 h", "result": 100, "unit": "µg/mL"}, {"measurement": "Antimicrobial Activities (MIC) S. aureus", "setting": "[2]", "result": 3.1, "unit": "µM"}, {"measurement": "MIC against A. niger, spore germination inhibition test after 24 hours", "setting": "[3]; IFO 6341, 24 h", "result": 50, "unit": "µg/mL"}, {"measurement": "MIC against A. niger, spore germination inhibition test after 48 hours", "setting": "[3]; IFO 6341, 48 h", "result": 50, "unit": "µg/mL"}, {"measurement": "Antimicrobial Activities (MIC) E. coli", "setting": "[4]", "result": 6.3, "unit": "µM"}, {"measurement": "antimicrobial activity against E. coli, in words", "setting": "[4]; comparison stated in text on Table 2", "result": "higher antimicrobial activities"}]}
{"substance": "LKRKLQRVVYWLL-CONH2 (LKRKLQRVVYWLL-NH2) [sample 22]", "values": [{"measurement": "MRSA bacterial quantity in intestine content, administered group 1", "setting": "[5]; mice, approximately 24 hours after administration, group 1", "result": "36 ×10^3 cells/g"}, {"measurement": "MRSA bacterial quantity in intestine content, administered group 2", "setting": "[5]; mice, approximately 24 hours after administration, group 2", "result": "35 ×10^3 cells/g"}, {"measurement": "MRSA bacterial quantity in intestine content, administered group 3", "setting": "[5]; mice, approximately 24 hours after administration, group 3", "result": "30 ×10^3 cells/g"}, {"measurement": "MRSA bacterial quantity in intestine content, administered group 4", "setting": "[5]; mice, approximately 24 hours after administration, group 4", "result": "16 ×10^3 cells/g"}, {"measurement": "MRSA bacterial quantity in intestine content, administered group 5", "setting": "[5]; mice, approximately 24 hours after administration, group 5", "result": "26 ×10^3 cells/g"}, {"measurement": "MRSA bacterial quantity in intestine content, Average", "setting": "[5]; mice, average of groups 1-5", "result": "29 ×10^3 cells/g"}, {"measurement": "treatment effect on MRSA-infected mice, in words", "setting": "[5]; compared with vancomycin", "result": "exhibited the same effect as the drug including vancomycin"}]}
{"substance": "benzalkonium chloride [reference compound]", "values": [{"measurement": "MIC against A. niger, spore growth inhibition test after 24 hours", "setting": "[1]; after 24 hours", "result": 25, "unit": "µg/mL"}, {"measurement": "MIC against A. niger, spore germination inhibition test after 24 hours", "setting": "[3]; after 24 hours", "result": 25, "unit": "µg/mL"}, {"measurement": "MIC against A. niger, spore germination inhibition test after 48 hours", "setting": "[3]; after 48 hours", "result": 25, "unit": "µg/mL"}]}
